From patent publication US10329281B2, “Polymorphs and process for the preparation of quinazolinyl derivatives” (HETERO LABS LTD, priority 2015, dated 2019)

Key:
[1] = Stability data of Afatinib dimaleate crystalline Form H3 on storage (PXRD, impurity, water content); format: physicochemical
Protocol: X-ray powder diffraction spectrum was measured on a bruker axs D8 advance X-ray powder diffractometer having a copper-a radiation. Adequate sample was gently flattered on a sample holder and scanned from 2 to 50 degrees two-theta, at 0.02 increment and scan speed of 0.2 Sec/Step. The sample was simply placed on the sample holder. The sample was rotated at 30 rpm at a voltage 40 KV and current 35 mA.

[2] = as above; format: physicochemical; design: Impurity: unit not given here
[3] = 25 ± 2° C./RH 60 ± 5%, 2nd Month
[4] = 25 ± 2° C./RH 60 ± 5%, 1st Month
[5] = 25 ± 2° C./RH 60 ± 5%, 3rd Month

In the case of `CN(C)C/C=C/C(=O)Nc1cc2c(Nc3ccc(F)c(Cl)c3)ncnc2cc1O[C@H]1CCOC1` [Afatinib dimaleate crystalline Form H3, 2-Butenamide, N-[4-[(3-Chloro-4-fluorophenyl)amino]-7-[[(3S)-tetrahydro-3-furanyl]oxy]-6-quinazolinyl]-4(dimethylamino),(2E)-], the PXRD ([1]; 5 ± 3° C., 1st Month) is reported as “Form H3”, the PXRD ([1]; 5 ± 3° C., 3rd Month) is reported as “Form H3” and the PXRD ([1]; 5 ± 3° C., Initial) is reported as “Form H3”. The PXRD [1, 3] was “Form H3”, the Impurity ([2]; 5 ± 3° C., 1st Month) was 0.22 and the Water Content ([2]; 5 ± 3° C., 1st Month) was 1.34%. For the same compound, the Impurity ([2]; 5 ± 3° C., 2nd Month) was 0.26, the PXRD ([2]; 5 ± 3° C., 2nd Month) was “Form H3” and the Water Content ([2]; 5 ± 3° C., 2nd Month) was 1.4%. For the same compound, the Impurity ([2]; 5 ± 3° C., 3rd Month) was 0.27, the Water Content ([2]; 5 ± 3° C., 3rd Month) was 1.26% and the Impurity ([2]; 5 ± 3° C., Initial) was 0.22. For the same compound, the Water Content ([2]; 5 ± 3° C., Initial) was 1%, the Impurity [2, 4] was 0.22 and the PXRD [2, 4] was “Form H3”. The Water Content [2, 4] was 1.18%, the Impurity [2, 3] was 0.38 and the Water Content [2, 3] was 1.35%. The Impurity [2, 5] was 0.43, the PXRD [2, 5] was “Form H3” and the Water Content [2, 5] was 1.56%. The Impurity ([2]; 25 ± 2° C./RH 60 ± 5%, Initial) was 0.22, the PXRD ([2]; 25 ± 2° C./RH 60 ± 5%, Initial) was “Form H3” and the Water Content ([2]; 25 ± 2° C./RH 60 ± 5%, Initial) was 1%. For the same compound, the stability ([2]; at 5±3° C. and 25±2° C./RH (Relative humidity) 60±5%) was “stable”.
